Test results taken from patent US8192962B2, “Processes for detecting toxic substances” (Daikin Industries, Ltd., priority 2001, dated 2012).

System: Transport facilitation protein genes
Experiment: DNA chip mRNA expression in yeast, transport facilitation protein genes (Table 5)
Type: cell-based, Saccharomyces cerevisiae S288C
Outline: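 S. cerevisiae S288C grown at 25° C in YPD were exposed in log phase for two hours to one toxic chemical at a growth-inhibiting, non-lethal concentration; untreated cells served as control. Poly(A) mRNA was reverse-transcribed with Cy3/Cy5-dUTP and hybridized to a whole-genome yeast DNA chip at 65° C for over 12 hours; values are fluorescence ratios versus untreated.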

CCCCCCCCCCCCOS(=O)(=O)[O-].[Na+] [(18), sodium lauryl sulfate]
The level of expressed mRNA in the presence of chemical substance/The level of expressed mRNA in the absence of chemical substance (yeast gene YBL030C): 1.1 | The level of expressed mRNA in the presence of chemical substance/The level of expressed mRNA in the absence of chemical substance (yeast gene YBL099W): 1.2 | The level of expressed mRNA in the presence of chemical substance/The level of expressed mRNA in the absence of chemical substance (yeast gene YBR052C): 3.1 | The level of expressed mRNA in the presence of chemical substance/The level of expressed mRNA in the absence of chemical substance (yeast gene YBR068C): 1.3 | The level of expressed mRNA in the presence of chemical substance/The level of expressed mRNA in the absence of chemical substance (yeast gene YBR127C): 1.0 | The level of expressed mRNA in the presence of chemical substance/The level of expressed mRNA in the absence of chemical substance (yeast gene YBR132C): 1.3 | The level of expressed mRNA in the presence of chemical substance/The level of expressed mRNA in the absence of chemical substance (yeast gene YBR207W): 1.4 | The level of expressed mRNA in the presence of chemical substance/The level of expressed mRNA in the absence of chemical substance (yeast gene YBR293W): 0.9 | The level of expressed mRNA in the presence of chemical substance/The level of expressed mRNA in the absence of chemical substance (yeast gene YBR294W): 0.9 | The level of expressed mRNA in the presence of chemical substance/The level of expressed mRNA in the absence of chemical substance (yeast gene YBR295W): 1.2 | The level of expressed mRNA in the presence of chemical substance/The level of expressed mRNA in the absence of chemical substance (yeast gene YBR298C): 0.8 | The level of expressed mRNA in the presence of chemical substance/The level of expressed mRNA in the absence of chemical substance (yeast gene YCL025C): 0.6 | The level of expressed mRNA in the presence of chemical substance/The level of expressed mRNA in the absence of chemical substance (yeast gene YCL038C): 1.5 | The level of expressed mRNA in the presence of chemical substance/The level of expressed mRNA in the absence of chemical substance (yeast gene YCR024C-A): 1.4 | The level of expressed mRNA in the presence of chemical substance/The level of expressed mRNA in the absence of chemical substance (yeast gene YCR037C): 0.9 | The level of expressed mRNA in the presence of chemical substance/The level of expressed mRNA in the absence of chemical substance (yeast gene YCR098C): 1.6 | The level of expressed mRNA in the presence of chemical substance/The level of expressed mRNA in the absence of chemical substance (yeast gene YDL128W): 1.0 | The level of expressed mRNA in the presence of chemical substance/The level of expressed mRNA in the absence of chemical substance (yeast gene YDL198C): 1.1 | The level of expressed mRNA in the presence of chemical substance/The level of expressed mRNA in the absence of chemical substance (yeast gene YDL210W): 0.9 | The level of expressed mRNA in the presence of chemical substance/The level of expressed mRNA in the absence of chemical substance (yeast gene YDL245C): 1.1 | The level of expressed mRNA in the presence of chemical substance/The level of expressed mRNA in the absence of chemical substance (yeast gene YDR038C): 1.5 | The level of expressed mRNA in the presence of chemical substance/The level of expressed mRNA in the absence of chemical substance (yeast gene YDR039C): 1.6 | The level of expressed mRNA in the presence of chemical substance/The level of expressed mRNA in the absence of chemical substance (yeast gene YDR086C): 1.9 | The level of expressed mRNA in the presence of chemical substance/The level of expressed mRNA in the absence of chemical substance (yeast gene YDR270W): 0.7 | The level of expressed mRNA in the presence of chemical substance/The level of expressed mRNA in the absence of chemical substance (yeast gene YDR298C): 1.6 | The level of expressed mRNA in the presence of chemical substance/The level of expressed mRNA in the absence of chemical substance (yeast gene YDR342C): 2.2 | The level of expressed mRNA in the presence of chemical substance/The level of expressed mRNA in the absence of chemical substance (yeast gene YDR343C): 2.3 | The level of expressed mRNA in the presence of chemical substance/The level of expressed mRNA in the absence of chemical substance (yeast gene YDR345C): 1.8 | The level of expressed mRNA in the presence of chemical substance/The level of expressed mRNA in the absence of chemical substance (yeast gene YDR387C): 1.1 | The level of expressed mRNA in the presence of chemical substance/The level of expressed mRNA in the absence of chemical substance (yeast gene YDR497C): 1.8 | The level of expressed mRNA in the presence of chemical substance/The level of expressed mRNA in the absence of chemical substance (yeast gene YEL027W): 1.4 | The level of expressed mRNA in the presence of chemical substance/The level of expressed mRNA in the absence of chemical substance (yeast gene YEL063C): 0.7 | The level of expressed mRNA in the presence of chemical substance/The level of expressed mRNA in the absence of chemical substance (yeast gene YEL065W): 0.6 | The level of expressed mRNA in the presence of chemical substance/The level of expressed mRNA in the absence of chemical substance (yeast gene YER053C): 2.3 | The level of expressed mRNA in the presence of chemical substance/The level of expressed mRNA in the absence of chemical substance (yeast gene YFL011W): 1.0 | The level of expressed mRNA in the presence of chemical substance/The level of expressed mRNA in the absence of chemical substance (yeast gene YFL041W): 0.9 | The level of expressed mRNA in the presence of chemical substance/The level of expressed mRNA in the absence of chemical substance (yeast gene YFL050C): 1.0 | The level of expressed mRNA in the presence of chemical substance/The level of expressed mRNA in the absence of chemical substance (yeast gene YFL054C): 1.4 | The level of expressed mRNA in the presence of chemical substance/The level of expressed mRNA in the absence of chemical substance (yeast gene YGL006W): 4.1 | The level of expressed mRNA in the presence of chemical substance/The level of expressed mRNA in the absence of chemical substance (yeast gene YGL008C): 1.0 | The level of expressed mRNA in the presence of chemical substance/The level of expressed mRNA in the absence of chemical substance (yeast gene YGL104C): 1.3 | The level of expressed mRNA in the presence of chemical substance/The level of expressed mRNA in the absence of chemical substance (yeast gene YGL167C): 1.4 | The level of expressed mRNA in the presence of chemical substance/The level of expressed mRNA in the absence of chemical substance (yeast gene YGL255W): 0.5 | The level of expressed mRNA in the presence of chemical substance/The level of expressed mRNA in the absence of chemical substance (yeast gene YGR055W): 0.7 | The level of expressed mRNA in the presence of chemical substance/The level of expressed mRNA in the absence of chemical substance (yeast gene YGR065C): 0.7 | The level of expressed mRNA in the presence of chemical substance/The level of expressed mRNA in the absence of chemical substance (yeast gene YGR082W): 0.8 | The level of expressed mRNA in the presence of chemical substance/The level of expressed mRNA in the absence of chemical substance (yeast gene YGR096W): 1.0 | The level of expressed mRNA in the presence of chemical substance/The level of expressed mRNA in the absence of chemical substance (yeast gene YGR138C): 0.7 | The level of expressed mRNA in the presence of chemical substance/The level of expressed mRNA in the absence of chemical substance (yeast gene YGR191W): 0.8 | The level of expressed mRNA in the presence of chemical substance/The level of expressed mRNA in the absence of chemical substance (yeast gene YGR197C): 1.9
